Test in all cases: Checkerboard assay (FIC index)
Test [1] deals with S. agalactiae. The format is cell-based, Streptococcus agalactiae. As to conditions: antibiotic combined with PEP35. How it is done:
(§1) The checkerboard assays were carried out as described by Eliopoulos and Moellering (Chapter 9) in Antibiotic in Laboratory Medicine, Lorian Ed. 1996 as well as Bonapace et al. Diagnostic Microbiology and Infectious Diseases 2002; 44:363-366 and Bonapace et al. Diagnostic Microbiology and Infectious Diseases 2000; 38:43-50. In brief, checkerboard assays were performed in 96 well microtitre trays using an 8-by-8 well configuration. […] 96-well custom designed microtitre plates contained 100 ul/well of cation adjusted Mueller-Hinton broth (eg. for Enterobacteriaceae) with or without lysed horse blood (2-5% V/V) [eg. for S. pneumoniae] and were inoculated to achieve a final concentration of approximately 5×10^5 CFU/ml and incubated in ambient air for 24 hours prior to reading. Colony counts were performed periodically to confirm inocula. Quality control was performed every two weeks using a variety of ATCC QC organisms including; S. pneumoniae 49619, S. aureus 29213, E. faecalis 29212, E. coli 25922 and P. aeruginosa 27853. For all antimicrobials as well as PEP35, CLSI criteria was used.
(§2) The fractional inhibitory concentration index (FIC index) was used to interpret synergy, antagonism or additivity/indifference. FIC index=FIC of drug A+FIC of drug B where:
(§3) The FIC of drug A and drug B is calculated as follows, FIC drug A=MIC of drug A in combination/MIC of drug A alone and FIC of drug B=MIC of drug B in combination/MIC of drug B alone. Synergy is defined as FIC index ≦0.5, additivity/indifference FIC >0.5-4 and antagonism FIC index >4.
Antimicrobials used included PEP35, cefazolin, ceftriaxone, vancomycin, linezolid, tigecycline and daptomycin versus Gram-positive cocci and PEP35, gentamicin, levofloxacin, piperacillin/tazobactam, meropenem and colistin (Polymyxin E) versus Gram-negative bacilli. These agents were obtained as laboratory grade powders from their respective manufacturers. Stock solutions were prepared and dilutions made as described by the Clinical Laboratory Standards Institute (2005 CLSI).
Organisms included Gram-positive cocci (2 strains of each): Methicillin-susceptible Staphylococcus aureus (MSSA), community-associated (CA) and healthcare-associated (HA) methicillin-resistant Staphylococcus aureus (MRSA), vancomycin-intermediate Staphylococcus aureus (VISA), vancomycin-resistant Staphylococcus aureus (VRSA), methicillin-resistant Staphylococcus epidermidis (MRSE), Streptococcus pyogenes, Streptococcus agalactiae, Streptococcus pneumoniae, Enterococcus faecalis, Enterococcus faecium and vancomycin-resistant enterococcus (VRE). Gram-negative bacilli tested (2 strains of each) included: E. coli, Pseudomonas aeruginosa, Klebsiella pneumoniae, K. oxytoca, Enterobacter cloacae, P. mirabilis and Stenotrophomonas maltophilia. MIC testing, following two subcultures from frozen stock were determined by the CLSI 2005 approved broth microdilution method.

Test [2] concerns VRSA. In kind it is cell-based, Staphylococcus aureus. To be noted: antibiotic combined with PEP35 (added together). On the procedure: (§4) Checkerboard assays were carried out as described by Bonapace et al.
as §1, with “Diagnostic” for “The checkerboard assays were carried out as described by Eliopoulos and Moellering (Chapter 9) in Antibiotic in Laboratory Medicine, Lorian Ed. 1996 as well as Bonapace et al. Diagnostic”, “2002; 44:363-366.” for “2002; 44:363-366 and Bonapace et al. Diagnostic Microbiology and Infectious Diseases 2000; 38:43-50.”, “27853. […] All peptides were assessed for synergy with β-lactams and vancomycin.” for “27853.”, “as the peptides,” for “as PEP35,”, “criteria were” for “criteria was”
as §2
(§5) The FIC of drug A and drug B was calculated as follows, FIC drug A=MIC of drug A in combination/MIC of drug A alone and FIC of drug B=MIC of drug B in combination/MIC of drug B alone. Synergy was defined as FIC index ≦0.5, additivity/indifference defined as a FIC between 0.5 and 4 and antagonism defined as an FIC index >4.
(§6) The fractional inhibitory concentration index (FIC index) was used to interpret synergy, antagonism or additivity/indifference. FIC index=FIC of drug A+FIC of drug B where the FIC of drug A and drug B was calculated as follows, FIC drug A=MIC of drug A in combination/MIC of drug A alone and FIC of drug B=MIC of drug B in combination/MIC of drug B alone. Synergy was defined as FIC index ≦0.5, additivity/indifference defined as an FIC of between 0.5 and 4 and antagonism defined as an FIC index >4.
as §1, with “27853.” for “27853. For all antimicrobials as well as PEP35, CLSI criteria was used.”
as §3
(§7) These agents were obtained as laboratory grade powders from their respective manufacturers. Stock solutions were prepared and dilutions made as described by the Clinical Laboratory Standards Institute (2005 CLSI).

Test [3] concerns CA-MRSA. In kind it is cell-based, Staphylococcus aureus. To be noted: antibiotic combined with PEP35 (added together). How it is done: as §4
as §1, with “Diagnostic” for “The checkerboard assays were carried out as described by Eliopoulos and Moellering (Chapter 9) in Antibiotic in Laboratory Medicine, Lorian Ed. 1996 as well as Bonapace et al. Diagnostic”, “2002; 44:363-366.” for “2002; 44:363-366 and Bonapace et al. Diagnostic Microbiology and Infectious Diseases 2000; 38:43-50.”, “27853. […] All peptides were assessed for synergy with β-lactams and vancomycin.” for “27853.”, “as the peptides,” for “as PEP35,”, “criteria were” for “criteria was”
as §2, §5, §6
as §1, with “27853.” for “27853. For all antimicrobials as well as PEP35, CLSI criteria was used.”
as §3, §7

The test system of test [4] is HA-MRSA. In kind it is cell-based, Staphylococcus aureus. To be noted: antibiotic combined with PEP35 (added together). On the procedure: as §4
as §1, with “Diagnostic” for “The checkerboard assays were carried out as described by Eliopoulos and Moellering (Chapter 9) in Antibiotic in Laboratory Medicine, Lorian Ed. 1996 as well as Bonapace et al. Diagnostic”, “2002; 44:363-366.” for “2002; 44:363-366 and Bonapace et al. Diagnostic Microbiology and Infectious Diseases 2000; 38:43-50.”, “27853. […] All peptides were assessed for synergy with β-lactams and vancomycin.” for “27853.”, “as the peptides,” for “as PEP35,”, “criteria were” for “criteria was”
as §2, §5, §6
as §1, with “27853.” for “27853. For all antimicrobials as well as PEP35, CLSI criteria was used.”
as §3, §7

The structures appear in SMILES notation.

For `CN(C)c1cc(NC(=O)CNC(C)(C)C)c(O)c2c1C[C@H]1C[C@H]3[C@H](N(C)C)C(O)=C(C(N)=O)C(=O)[C@@]3(O)C(O)=C1C2=O` [Tigecycline, tigecycline], the “Avg ΣFIC (range)” value was 1.10 (1.0-1.25) in test [1] (S. agalactiae 80870 (MHB)); 1.05 (0.75-1.25) in test [1] (S. agalactiae 81262 (MHB)); 0.93 (0.62-1.12) in test [2] (VRSA 105); 1.2 (0.56-2.12) in test [2] (VRSA 106); 0.93 (0.62-1.12) in test [3] (CA-MRSA 69615 (USA400)); 0.74 (0.5-1.06) in test [3] (CA-MRSA 70857 (USA400)). Further, the results for the “Avg ΣFIC (range)” value in test [4] (HA-MRSA 70798 (USA100/800)) and in test [4] (HA-MRSA 77090 (USA100/800)) were 0.77 (0.5-1.06) and 0.83 (0.5-1.12), respectively.
